{
  "source": "patent US20160310589A1",
  "about": "“Glucopyranosyl Lipid A and Allergen Formulations For Sublingual Administration” (Sanofi, priority 2015, published 2016)",
  "key": {"[1]": {"system": "Ova-specific OT-II TcR transgenic T cells", "test": "Antigen-specific OT-II T cell proliferation after sublingual administration (cell-tracker dye, flow cytometry)", "type": "in vivo, mice", "conditions": "GLA 0.2 μg, OVa323-339 peptide 10 μg, four days later (FIGS. 4A, 4C, 4E)", "method": "Ova-specific OT-II TcR transgenic T cells were labeled with cell-tracker violet dye and adoptively transferred into syngeneic wild type mice. Mice then received sublingual administration of GLA (0.2 μg) alone (FIGS. 4A and 4B), OVa323-339 peptide (10 μg) alone (FIGS. 4C and 4D), or GLA co-administered with Ova peptide (FIGS. 4E and 4F). Four days later, the draining cervical lymph nodes (FIGS. 4A, 4C, and 4E) and spleen (FIGS. 4B, 4D, and 4F) were removed and OT-II T cell proliferation (via the decrease in cell-tracker dye fluorescence) was measured by flow cytometry.\nMethods. Sublingual administration was performed as described above in Example 1.\nFormulations of Ova peptide and/or GLA included methylcellulose as described in Example 1. Mixtures of methylcellulose+Ova peptide, and methylcellulose+Ova peptide+GLA were prepared the day before dosing.\nOva-specific OT-II TcR transgenic T cells were labeled with cell-tracker violet dye and adoptively transferred into syngeneic wild type mice. Mice then received sublingual administration of GLA (0.2 μg, 0.02 μg or 0.002 μg) co-administered with OVa323-339 peptide or peptide without GLA (0 mg). Four days later, cervical lymph nodes were removed and OT-II T cell proliferation (via the decrease in cell-tracker dye fluorescence) was measured by flow cytometry."}, "IL-6": {"system": "IL-6", "method": "GLA was formulated in DPPC (1,2-dipalmitoyl-sn-glycero-3-phosphocholine) as GLA:DPPC 1:2 (M:M) in Millipore (sterile) water. Animals were sedated with ketamine (5 mg/kg to 10 mg/kg)/dexmedetomidine (0.01 mg/kg to 0.016 mg/kg), IM (intramuscularly), while in their cage. Once sedated, they were brought into the laboratory and placed onto a circulating water heating pad (Gaymar). Sublingual (right side) and left cheek pouch mucosal brushings were taken 15 minutes prior to dosing using Copan FLOQSwabs™ and placed into RLT buffer (QIAmp Minikit Plus, Qiagen), vortexed and immediately frozen on dry ice. Sublingual dosing of GLA (100 μl dosed via syringe) was performed under the right side of the animals tongue and allowed to absorb into the mucosa for three minutes. Further sublingual and cheek brushings were obtained at 6 hr, 24 hr and 48 hr post dosing.\nRNA processing was performed from the cheek and sublingual swabs using a QIAmp Minikit Plus (Qiagen) which includes a gDNA (genomic DNA) eliminator column. Gene expression was quantified using the Comparative CT Method, which calculates the relative gene expression quantitation between a target gene and an endogenous control. All target genes were quantitated relative to the expression of the housekeeping gene ARL1. Using the relative expression, the fold of baseline expression was calculated as [(Relative gene expression at time point of interest)/(Baseline relative gene expression)]."}, "[2]": {"conditions": "six hours after sublingual administration"}},
  "data": [
    {"molecule": "OVa323-339 peptide: Ova peptide antigen recognised by OT-II TcR transgenic T cells (KISQAVHAAHAEINEAG; UniProt P01012 323-339, looked up, fragment)", "values": [
      {"measurement": "antigen-specific T cell proliferation in the draining cervical lymph nodes", "setting": "[1]", "result": "not"}
    ]},
    {"molecule": "CCCCCCCCCCCCCC(=O)O[C@H](CCCCCCCCCCC)CC(=O)O[C@@H]1[C@@H](NC(=O)C[C@H](CCCCCCCCCCC)OC(=O)CCCCCCCCCCCCC)[C@H](OC[C@H]2O[C@H](O)[C@H](NC(=O)C[C@H](O)CCCCCCCCCCC)[C@@H](OC(=O)C[C@H](O)CCCCCCCCCCC)[C@@H]2O)O[C@H](CO)[C@H]1OP(=O)(O)O", "note": "[GLA, Glucopyranosyl Lipid A]", "values": [
      {"measurement": "antigen-specific T cell proliferation in the draining cervical lymph nodes", "setting": "[1]", "result": "not"},
      {"measurement": "IL-6 expression 24 hours after sublingual administration", "setting": "IL-6; 24 hours after sublingual administration", "result": "not detected"},
      {"measurement": "duration of local action within the oral cavity", "setting": "IL-6; current formulation GLA:DPPC 1:2, sublingual", "result": "≤ 1", "unit": "days"},
      {"measurement": "IL-6 in brushings from the cheek", "setting": "IL-6; [2]", "result": "not detected"},
      {"measurement": "IL-6 in the blood", "setting": "IL-6; [2]", "result": "not detected"},
      {"measurement": "IL-6 expression in sublingual mucosal brushings", "setting": "IL-6; six hours after sublingual administration, 3 different doses of GLA", "result": "dose-dependent expression of IL-6"}
    ]}
  ]
}
